The text below walks through data of paper PMC12348691, “Amesilide, a New Bicyclic Polyketide from the Marine Fungus Amesia nigricolor MUT6601” (Molecules, 2025).

Converted amounts (≈) assume the structure as drawn. Like-named read-outs stand apart in the source and are kept apart here.

Data set [1] relates to Candida albicans (CA01). Kind of data set: Antifungal assay (MIC), Candida albicans CA01. The class given is cell-based. The note with it: 48 h. The procedure: (§1) Stock solutions of all compounds were prepared in DMSO. Two bacterial (E. coli UTI89 and S. aureus S25) and two yeast strains (C. krusei CK1 and C. albicans CA01) have been used for this study. […] Each culture was diluted 12 times to have a final OD value of 0.1. Then, 100 µL from the diluted (OD of 0.1) bacterial culture and 0.5 μL of each stock solution was added to the corresponding wells (in triplicate) in a 96-well plate to a final concentration of 50 μM. For the antifungal assay, the two strains C. krusei CK1 and C. albicans CA01 were spread on Petri plates with YPD (yeast-extract peptone dextrose) agar. Later, an isolated colony was collected in a tube containing 5mL of RGM (RPMI 1640® (21875, Invitrogen GIBCO®) + 34.56g/L MOPS) to have an OD of 0.05. The fungal culture and stock solutions of compounds were diluted and added to the wells as indicated for the antibacterial activity assay. To determine the potential inhibitory effect of extracts on fungal growth, absorbance at t = 0 h, t = 20 h (for antibacterial assay), and t = 48 h (for antifungal assay) were measured with the Biotek Synergy 2 Plate Reader at a wavelength of 600 nm and analyzed with the software Gen5 v3.08. Then, the differential OD was calculated (ODT48/20-ODT0) and compared to solvent control. […] Ampicillin was used as positive control (MIC of 0.5 µg/mL for all bacteria and 1.0 µg/mL for all fungi).

Data set [2] concerns (CK01). Kind of data set: Antifungal assay (MIC), Candida strain CK01. The class given is cell-based, Candida tropicalis. The note with it: 48 h.
Data set [3] deals with Leishmania infantum (LI01). Kind of data set: Antiparasitic activity (MIC), Leishmania infantum LI01. The class given is cell-based.
For data set [4], the system named is human monocytes (THP-1). Kind of data set: Cytotoxicity assay (AlamarBlue), THP-1. The class given is cell-based. The note with it: PMA-activated. The procedure: (§2) Human erythrocytes (RBC), human monocytes (THP-1), and peripheral blood mononuclear cells (PBMC) were used for this study. THP-1 cells (TIB-202) were obtained from ATCC (https://www.atcc.org (accessed on 26 January 2025)) and activated with PMA (phorbol myristate acetate) (100 ng/mL) for 48 h. Cells were grown in RPMI 1640 medium supplemented with fetal bovine serum (FBS) 10% (10270-098, GIBCO®) and penicillin/streptomycin (1%) (15140-122 GIBCO®) at 37 °C under 5% CO2 atmosphere.
(§3) For the cytotoxicity assay, THP-1 and PBMC medium cultures were added into 96-well plates with 5 × 10^3 cells per well. A two-fold dilution concentration series of each compound was added to the plates to final concentrations of 200 − 6.25 μM. AlamarBlue (DAL1025, ThermoFisher, Waltham, MA, USA), a ready-to-use resazurin-based solution, was used to measure cell viability after treatment with the extracts. A total of 10 µL was added to each well and the plate was incubated for 6–8 h at 37 °C. Fluorescence was then measured with the Biotek Synergy 2 Plate Reader using excitation at 530 nm and emission at 590 nm. The percentage of cell death was then calculated using the following formula (Equation (3)):(3) % Cellular Death = 100 × ODt − OD100/OD0 − OD100 where ODt = the fluorescence value of the test compound, OD100 = the fluorescence value for the culture medium, and OD0 = the fluorescence value for Triton 0.12%.
A general note: Resazurin is reduced to fluorescent resorufin, in cell work by metabolically active cells.

Data set [5] relates to human erythrocytes (RBC). Kind of data set: Hemolytic assay, human erythrocytes. The class given is cell-based. The note with it: for IC50: Homo sapiens, Erythrocyte, 0.5 h; for cytotoxicity against human erythrocytes (RBC): result in words. The procedure: as §2
For the hemolytic assay, freshly obtained human erythrocytes (RBCs) from patients were washed twice with PBS (pH 7.4). This assay was performed at 10% hematocrit with two-fold serial dilutions from 200 μM of test compounds in a final volume of 100 μL, followed by incubation at 37 °C under 5% CO2 atmosphere for 30 min. Later, the plates were centrifugated at 3000g for 5 min and supernatant was transferred onto a new 96-well plate. Finally, RBC lysis was determined by the absorbance of the supernatant at 540 nm. Results were calculated with the following formula (Equation (2)):(2) % hemolysis = 100 × ODt − OD100/OD0 − OD100 where ODt = the absorbance value of test compounds; OD100 = the absorbance value of the medium; and OD0 = the absorbance value of the wells treated with 1% Triton-X.

Data set [6] deals with peripheral blood mononuclear cells (PBMC). Kind of data set: Cytotoxicity assay (AlamarBlue), PBMC. The note with it: PBMC primary cells. It counts as cell-based, human. The procedure: as §2, §3
The test system of data set [7] is Escherichia coli (UTI89). Kind of data set: Antibacterial assay (MIC), Escherichia coli UTI89. The note with it: 20 h. The class given is cell-based. The procedure:
as §1

Data set [8] relates to Staphylococcus aureus (S25). Kind of data set: Antibacterial assay (MIC/MBC), Staphylococcus aureus S25. The note with it: for MIC: 20 h. It counts as cell-based. The procedure: as §1
The subject of data set [9] is all bacteria (E. coli UTI89 and S. aureus S25). Kind of data set: Antibacterial assay, positive control, all bacteria. The class given is cell-based. The note with it: Escherichia coli. The procedure:
as §1

The subject of data set [10] is all fungi (C. krusei CK1 and C. albicans CA01). Kind of data set: Antifungal assay, positive control, all fungi. It counts as cell-based. The note with it: Pichia kudriavzevii. The procedure:
as §1

Data set [11] deals with Staphylococcus aureus. The note with it: result in words; cited from earlier work.
The test system of data set [12] is Niemann-Pick C1-like 1 (NPC1L1) protein. Further details: method as in PMID 30665368. The conditions noted are these: reducing the cholesterol absorption; cited from earlier work.
Setting [13] is: Homo sapiens, THP-1 cell line, read-out: IC50.
The mark [14] stands for this setting: RBC primary cells, hemolysis, 30 min, 10% hematocrit, read-out: IC50.
The mark [15] stands for this setting: Staphylococcus aureus (S25), OD 600 nm, inhibiting bacterial growth, read-out: MIC.
[16] abbreviates: Homo sapiens, THP-1, THP-1 cell line.

Consider `C[C@@H]1[C@H](O)[C@@H](C)/C=C/C=C/C=C/C=C/C=C/C=C/C=C/[C@H](O[C@@H]2O[C@H](C)[C@@H](O)[C@H](N)[C@@H]2O)C[C@@H]2O[C@](O)(C[C@@H](O)C[C@@H](O)[C@H](O)CC[C@@H](O)C[C@@H](O)CC(=O)O[C@H]1C)C[C@H](O)[C@H]2C(=O)O` [Amphotericin B, reference compound], for which the MIC was 0.2 µM in data set [1] (Candida albicans (CA01), OD 600 nm, read-out: MIC); 0.2 µM (≈ 0.185 µg/mL) in data set [2] (Candida tropicalis (CK01), OD 600 nm, read-out: MIC); 0.39 µM (≈ 0.36 µg/mL) in [3] (Leishmania infantum (LI01), read-out: MIC). Also, the concentration for half-maximal inhibition (IC50) amounted to 3.13 µM in [4] (setting [13]); 25 µM in [5] (setting [14]); 6.25 µM in data set [6] (Homo sapiens, read-out: IC50).

Take `CC1(C)S[C@@H]2[C@H](NC(=O)[C@H](N)c3ccccc3)C(=O)N2[C@H]1C(=O)O` [Ampicillin, reference compound]: the MIC was greater than 100 µM in data set [7] (Escherichia coli (UTI89), OD 600 nm, read-out: MIC); 1.56 µM in data set [8] (setting [15]); 0.5 µg/mL in [9]; 1 µg/mL in data set [10]. Moreover, the IC50 in [4] (setting [13]) was greater than 200 µM; in data set [5] (setting [14]), greater than 200 µM; in data set [6] (Homo sapiens, read-out: IC50), greater than 200 µM.

Regarding `CC1=CC2(O)C(C3(C)CC(C)CC(C)C(=O)O3)CC(=O)C23C(=O)N(C)C(=O)C(c2ccccc2)C3C1C` (stereo not drawn) [compound 2, chamiside A], in [11], the “antibacterial activity against Staphylococcus aureus” value is on record as “moderate antibacterial activity”.

On to `C[C@H]1Oc2cc3c(-c4c(O)cc(O)c5c(O)c6c(cc45)O[C@H](C)[C@@H](C)C6=O)c(O)cc(O)c3c(O)c2C(=O)[C@@H]1C` [compound 7, chaetochromin A], for which the MIC in [7] (Escherichia coli) is greater than 100 µM; in data set [8] (setting [15]) it was 6.25 µM; in [8] (Staphylococcus aureus), 6.25 µM; in data set [1] (Candida albicans) it was greater than 100 µM; in [2] (Candida tropicalis), greater than 100 µM; in [3] (Leishmania infantum) it was greater than 100 µM. Further, the MBC in [8] (Staphylococcus aureus) turned out to be 12.5 µM. The IC50 is 33.6 µM in [4] (setting [16]); 33.6 to 40 µM in data set [4] (THP-1 cell line); greater than 200 µM in [5]; 35.4 µM in data set [6] (Homo sapiens, PBMC); 33.6 to 40 µM in data set [6]. Further, the “cytotoxicity against human erythrocytes (RBC)” value in [5] is given as “no cytotoxicity”. In [11], the “antibacterial activity against S. aureus” value is recorded as “strong antibacterial activity”.

For `C[C@@H]1Oc2cc3c(-c4c(O)cc(O)c5c(O)c6c(cc45)O[C@H](C)[C@@H](C)C6=O)c(O)cc(O)c3c(O)c2C(=O)[C@@H]1C` [compound 8, chaetochromin B], the MIC in data set [7] (Escherichia coli) was greater than 100 µM; in data set [8] (setting [15]), 6.25 µM; in [8] (Staphylococcus aureus), 6.25 µM; in data set [1] (Candida albicans), 100 µM; in data set [2] (Candida tropicalis) it was greater than 100 µM; in data set [3] (Leishmania infantum), greater than 100 µM. In addition, the MBC in data set [8] (Staphylococcus aureus) was found to be 12.5 µM. Moreover, the IC50 is 37.3 µM in [4] (setting [16]); 33.6 to 40 µM in data set [4] (THP-1 cell line); greater than 200 µM in data set [5]; 40 µM in data set [6] (Homo sapiens, PBMC); 33.6 to 40 µM in data set [6]. The “cytotoxicity against human erythrocytes (RBC)” value in data set [5] is reported as “no cytotoxicity”.

As to Chamiside F, in data set [12], the “inhibitory activity against NPC1L1” value is reported as “inhibitory activity”.

The MIC is the smallest concentration in the dilution series that meets the test's criterion for growth inhibition. The IC50 is the point on the concentration scale where inhibition reaches its midpoint. What is called MBC is the smallest concentration meeting the test's criterion for killing.
